These results are taken from patent US7314726B2, “Beta secretase exosite binding peptides and methods for identifying beta secretase modulators” (Bristol-Myers Squibb Company, priority 2002, dated 2008).

Alexa488 = Alexa Fluor 488 fluorescent label

Experiment [1] deals with T1, catalytic domain of human BACE expressed in a CHO cell line (Homo sapiens, UniProt P56817).
T1 construct: The cDNA for the catalytic domain of human BACE (residues 1-460) was PCR-amplified; human IgG1 heavy chain (C, cleaved yes); thrombin cleavage site (C); made in house; host or cells: CHO DG44 cells (stably transfected, secreted)
Put plainly: Fluorescently labeled EBP binding to BACE, fluorescence anisotropy. The note with it: pH 4.5 (50 mM acetate), 25° C., 1:1 binding model; read-out: binding constant (Kd) of labeled EBP. Here is the method: An assay to evaluate the binding of BACE to EBPs labeled with a fluorescent molecule (for example, but not limited to Alexa488) was developed. This assay uses the catalytic domain of human BACE expressed in a CHO cell line (according to Example 3) and labeled EBPs such as Molecule X shown in FIG. 4. The change in fluorescent anisotropy of the EBP peptide upon binding to BACE is monitored.
Peptides were dissolved in 100% DMSO (dimethyl sulfoxide) at 10 mM concentration, and then diluted 10-fold into deionized water. The concentration of the labeled peptides was determined by their absorbance at 495 nm (ε=71000 cm^−1M^−1). The concentration of selected unlabeled peptides was determined by their Tyr absorbance at 276 nm (ε=1390 cm^−1M^−1 per Tyr residue).
The binding was carried out at pH 7.1 (PBS buffer) and pH 4.5 (50 mM acetate buffer) in the presence of 1% DMSO. Fluorescence anisotropy was measured at 25° C. in an AVIV fluorometer. The excitation and emission wavelengths were set to 495 and 519 nm, respectively. The excitation and emission slit width were 4 and 10 nm, respectively. A concentrated BACE stock was used to titrate a 300 μl solution of 10 nM labeled EBP. The final BACE concentration ranges from 10 to 5000 nM. After the addition of BACE, the solution was mixed for 10 times with a pipettor. The fluorescence anisotropy was averaged over a 5 minute period.
The change in anisotropy was plotted against the BACE concentration (see, for example, FIG. 5). The Kd of the labeled EBP as well as the initial (r0) and final anisotropy (rb) of the labeled EBP were calculated from curve fitting using the program Kaleidagraph. The equation used to fit the binding data is identical to equation 1 in Lai et al., (2000) Arch. Biochem. Biophys. 381:278-284.

Experiment [2] has as its target T2, BACE (Homo sapiens, UniProt P56817). Nature of the experiment: Competitive binding assay, displacement of labeled EBP from BACE, fluorescence anisotropy. Set-up: The cDNA for the catalytic domain of human BACE (residues 1-460) was PCR-amplified; human IgG1 heavy chain (C, cleaved yes); thrombin cleavage site (C); made in house; host or cells: CHO DG44 cells (stably transfected, secreted). How it is done: The competitive binding assay was carried out at pH 7.1 (PBS buffer) or pH 4.5 (50 mM acetate buffer). The fluorescence anisotropy was measured at 25° C. in an AVIV fluorometer. The excitation and emission wavelengths were set to 495 and 519 nm, respectively. The excitation and emission slit widths were 4 and 10 nm, respectively.
The initial anisotropy value was measured. A concentrated unlabeled peptide or compound stock was titrated into the above solution of EBP and BACE. The final concentration of unlabeled peptide or compound ranges from 20 to 20000 nM. After each addition, the solution was mixed for 10 times with a pipettor. The fluorescence anisotropy was averaged over a 5 minute period.
The change in anisotropy was converted to fractional occupancy based on the r0 and rb obtained from the binding assay. The fractional occupancy was then plotted against the concentration of the competing peptide or compound. (see, for example, FIG. 6) The Kd of the competing ligand was calculated from curve fitting using the program […]™ (Synergy Software, Reading, Pa.). The equation used to fit the competition data is identical to equation 4 in Lai et al., (2000) Arch. Biochem. Biophys. 381:278-284.
The truncated unlabeled peptides were screened at a single concentration of 10 μM at pH 4.5. The anisotropy values detected with Molecule X in the absence of inhibitor, i.e., truncated unlabeled peptide (ra) and in the presence of the inhibitor (rb) and the labeled peptide alone (r0) were used to calculate the percent of inhibition: 100 (ra-rb)/(ra-r0). The percent of inhibition was compared among the truncated peptides.

For experiment [3], the target named is T2, BACE. Put plainly: Isothermal titration calorimetry (ITC) of BACE and peptides. Also noted: The cDNA for the catalytic domain of human BACE (residues 1-460) was PCR-amplified; human IgG1 heavy chain (C, cleaved yes); thrombin cleavage site (C); made in house; host or cells: CHO DG44 cells (stably transfected, secreted). The conditions noted are these: 25° C. The class given is binding. Here is the method: Isothermal titration calorimetry was performed to determine quantitatively the binding affinities of BMS-561877 and BMS-561871 for β-secretase. Recombinant human BACE was expressed as a fusion protein with human IgG1, in Chinese hamster ovary (CHO) cells (Vassar et al., (1999) Science 286:735-741 and Haniu et al., (2000) J. Biol. Chem. 275:21099-21106).
This construct, referred to as BACE-T-IgG, also contained a protease cleavage site between BACE and IgG1, sensitive to human α-thrombin. The cDNA for the catalytic domain of human BACE (residues 1-460) was PCR-amplified and subcloned into the mammalian expression vector pTV1.6, upstream of a thrombin cleavage site linked to cDNA encoding human IgG1 heavy chain. The vector construct, pTV1.6-BACE-T-IgG, was used to produce stably transfected DHFR-deficient CHO DG44 cells, which were then scaled up using methotrexate for selection.
The clarified growth media harvested from CHO DG44 cells which contained the fusion protein was loaded onto a rProtein A SEPHAROSE™ column (5×20 cm, Amersham Pharmacia Biotech) using a peristaltic pump at 4° C., at 4 mL/min. The column was washed with Dulbecco's PBS, pH 7.1, 4 mL/min, until baseline absorbance at 280 nm was observed. BACE-T-IgG was eluted from the resin with 0.10 M citrate, pH 3.0, into tubes containing 0.5 volumes of 4 M Tris, pH 8. Fractions containing the fusion protein were dialyzed extensively using 12,000-14,000 […] MWCO membrane (UltraPURE, GIBCO BRL) against PBS, pH 7.1, at 4° C. The protein was sterile filtered (0.22 μm) and stored at 4° C.
To generate BACE for binding experiments, the fusion protein BACE-T-IgG was treated with human α-thrombin (Enzyme Research Labs, South Bend, Ind.) at a ratio of 1:500 (mass:mass) in Dulbecco's PBS, pH 7.1, at 37° C. for 2 hr. Human α-thrombin was removed by passing the sample over Benzamidine SEPHAROSE™ 6B column (Amersham Pharmacia Biotech). The cleaved IgG1 was captured by passing the solution over a rProtein A SEPHAROSE™ (Amersham Pharmacia Biotech) column, whereas the BACE passed through this column. The protein sample was further purified by concentrating to 10-15 mg/mL using a centrifugation concentration unit (Millipore Ultrafree 10 kDa MWCO, 15 mL unit) and loading onto a SUPERDEX™ 200 PC 3.2/30 gel-filtration column (Amersham Pharmacia Biotech). The column was run at 3 mL/min with Dulbecco's PBS, pH 7.1, at room temperature. Fractions containing BACE were combined, sterile filtered (0.22 μm) and stored at 4° C.
BACE was prepared for isothermal titrating calorimetry by extensive dialysis against fresh buffer at 4° C. using 12,000-14,000 […] MWCO dialysis membrane (UltraPURE, GIBCO BRL). […] Following 2 buffer changes, the protein was removed from the membrane and centrifuged (5 min×4000 g, 4° C.) to remove particulates. The protein was stored at 4° C. until needed for the calorimetry experiments. The protein concentration was determined by 10-fold dilution into the same buffer, and measuring the UV absorbance at 280 nm in a 1.00 cm pathlength cell (calculated value=1.22 AU=1.00 mg/mL protein, based on mean glycosylated molecular weight=53.5 kDa, and given amino acid composition). Final concentrations used in isothermal titrating calorimetry were typically 5.0 μM, containing a final concentration of 0.5% v/v DMSO.
Peptides were dissolved in the buffer dialysate from protein dialysis, and equal volumes of DMSO were added to each (0.5% v/v DMSO). The pH values of the solutions were adjusted as necessary to equal that of the buffer dialysate and protein sample within 0.01 pH units.

T2 sequence (P56817 46-460 limits assumed): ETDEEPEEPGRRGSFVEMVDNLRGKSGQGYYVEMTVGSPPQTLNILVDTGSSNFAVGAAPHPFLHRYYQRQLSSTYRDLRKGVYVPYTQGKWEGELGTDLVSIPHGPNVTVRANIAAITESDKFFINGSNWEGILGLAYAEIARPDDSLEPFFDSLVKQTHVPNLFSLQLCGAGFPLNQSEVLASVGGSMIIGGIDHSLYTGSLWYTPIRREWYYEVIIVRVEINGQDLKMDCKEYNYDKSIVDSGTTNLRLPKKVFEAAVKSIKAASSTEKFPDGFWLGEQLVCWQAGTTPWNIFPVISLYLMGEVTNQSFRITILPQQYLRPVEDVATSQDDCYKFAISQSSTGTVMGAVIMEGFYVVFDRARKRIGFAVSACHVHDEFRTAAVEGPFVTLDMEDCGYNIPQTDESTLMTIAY
T1 sequence (P56817 46-460 limits assumed): as above

As usually defined, the Kd is the concentration at which binding is half-saturated. In the case of “Molecule Y2: analog of Molecule Y1 with different length of linker between Alexa488 and the peptide (Ac-YPYFIPL-Alexa488; also: linker between peptide and Alexa488 not given here)”, the Kd in experiment [1] stood at 0.092 µM.

On to “LYPPYIF (Ac-LYPPYIF-NH2) [BMS-599271, scrambled peptide containing the same amino acids as BMS-593925]”, for which the “binding to BACE” value in experiment [2] (scrambled peptide) is “does not bind to BACE”.

Take `CC[C@H](C)[C@H](NC(=O)[C@H](Cc1ccccc1)NC(=O)[C@H](Cc1ccc(O)cc1)NC(=O)[C@@H]1CCCN1C(=O)[C@H](Cc1ccc(O)cc1)NC(C)=O)C(=O)N1CCC[C@H]1C(=O)N[C@@H](CC(C)C)C(N)=O` [BMS-593925, Tyr-Pro-Tyr-Phe-Ile-Pro-Leu]: the Kd in experiment [2] (pH 4.5, displacement of Molecule Y1, read-out: Kd of unlabeled EBP by competition) was determined as 1.2 µM.

In the case of Ac-HWPFFIRS-NH2 [BMS-655507], in experiment [3] (50 mM NaOAc, pH 4.5), the KA is 610000 M⁻¹, binding was put at a Kd of 1.64 µM, the TΔS is -22.8 kJ/mol and the ΔG is -33.1 kJ/mol. In experiment [3] (50 mM NaOAc, pH 4.5), this compound had a ΔH of -55.86 kJ/mol. In experiment [3] (Dulbecco's PBS, pH 7.0), this compound had a KA of 1.09e+06 M⁻¹, a Kd of 0.914 µM, a TΔS of -41 kJ/mol and a ΔG of -34.4 kJ/mol. In addition, the ΔH in experiment [3] (Dulbecco's PBS, pH 7.0) is -75.48 kJ/mol.

With “Molecule Y4: analog of Molecule Y1 with different length of linker between Alexa488 and the peptide (Ac-YPYFIPL-Alexa488; also: linker between peptide and Alexa488 not given here)”, in experiment [1], the Kd amounted to 0.062 µM.
